The results in this text go back to ChEMBL document CHEMBL1201862, “PubChem BioAssay data set” (2004).

In assay [1] the target is T1, Calpain-2 catalytic subunit (Sus scrofa, UniProt P43367).
T1 sequence (P43367 whole entry): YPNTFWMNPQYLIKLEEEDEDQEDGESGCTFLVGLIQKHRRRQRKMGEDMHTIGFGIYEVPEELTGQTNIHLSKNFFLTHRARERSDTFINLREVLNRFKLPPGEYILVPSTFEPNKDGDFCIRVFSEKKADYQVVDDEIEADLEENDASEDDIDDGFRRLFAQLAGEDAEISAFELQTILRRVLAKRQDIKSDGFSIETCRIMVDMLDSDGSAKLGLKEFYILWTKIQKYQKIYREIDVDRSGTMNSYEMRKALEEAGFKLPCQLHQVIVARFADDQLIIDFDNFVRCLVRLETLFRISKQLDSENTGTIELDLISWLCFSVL
The experiment in a line: m-calpain protease blockers, concentration series – biochemical, fluorogenic peptide substrate, dose response (AID 1420). Format: functional.

Assay [2] concerns the target T2, Aminopeptidase N (Plasmodium falciparum FcB1/Columbia, UniProt O96935).
T2 sequence (O96935 whole entry): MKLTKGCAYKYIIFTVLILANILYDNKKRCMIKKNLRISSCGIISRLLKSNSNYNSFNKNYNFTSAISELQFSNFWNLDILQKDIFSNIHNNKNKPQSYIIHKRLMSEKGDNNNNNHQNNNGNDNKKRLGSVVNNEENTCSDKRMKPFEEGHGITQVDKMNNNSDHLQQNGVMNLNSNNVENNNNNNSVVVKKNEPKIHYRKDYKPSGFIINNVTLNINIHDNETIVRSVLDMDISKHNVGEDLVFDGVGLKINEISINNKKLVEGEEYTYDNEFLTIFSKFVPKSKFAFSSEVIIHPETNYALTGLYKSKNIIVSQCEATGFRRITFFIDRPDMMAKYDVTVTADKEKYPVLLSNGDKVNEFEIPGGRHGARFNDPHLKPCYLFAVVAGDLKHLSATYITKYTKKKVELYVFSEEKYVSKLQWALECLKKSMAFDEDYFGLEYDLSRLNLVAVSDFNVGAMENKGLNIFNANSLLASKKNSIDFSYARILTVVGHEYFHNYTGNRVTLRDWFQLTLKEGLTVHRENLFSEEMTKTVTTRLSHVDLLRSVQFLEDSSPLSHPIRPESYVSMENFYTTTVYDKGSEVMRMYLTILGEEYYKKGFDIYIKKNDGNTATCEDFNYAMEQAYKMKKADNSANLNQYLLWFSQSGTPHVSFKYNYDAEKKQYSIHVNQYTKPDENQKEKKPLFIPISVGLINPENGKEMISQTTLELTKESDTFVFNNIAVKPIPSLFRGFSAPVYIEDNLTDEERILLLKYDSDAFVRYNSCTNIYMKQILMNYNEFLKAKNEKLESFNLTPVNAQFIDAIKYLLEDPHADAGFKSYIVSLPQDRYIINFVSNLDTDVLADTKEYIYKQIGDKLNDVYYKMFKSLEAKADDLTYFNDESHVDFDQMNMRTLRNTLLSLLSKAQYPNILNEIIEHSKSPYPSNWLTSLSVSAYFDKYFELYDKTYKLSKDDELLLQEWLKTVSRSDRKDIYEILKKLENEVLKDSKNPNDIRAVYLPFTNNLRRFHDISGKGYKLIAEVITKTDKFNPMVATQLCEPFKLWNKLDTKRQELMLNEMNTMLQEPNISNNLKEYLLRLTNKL
The experiment in a line: malaria alanyl aminopeptidase activity blockers – biochemical, fluorogenic H-Leu-NHMec substrate, 1536-well (AID 1445). Set-up: species or system Plasmodium falciparum 3D7, 3D7.

The nature of assay [3]: HIV-1 Vif–A3G interaction blockers – biochemical, TR-FRET, GST-Vif 1-94, biotin-A3G peptide, dose response retest, primary screen (AID 1117319).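 Also: TR-FRET signal of purified GST-Vif binding a biotinylated A3G peptide; inhibitors lower the FRET signal by blocking Vif and A3G binding.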 It is filed as functional.
A short description of assay [4]: Trypanosoma cruzi growth suppression in host cells – NIH3T3 host cells, beta-gal luminescence, confirmation (AID 2044).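 Also: intracellular parasites grown in NIH/3T3 mouse fibroblasts as host cells; luminescent beta-galactosidase reporter signal from transgenic T. cruzi replicating inside host cells; inhibitors lower the luminescence signal.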 It is filed as functional, cell-based.
Assay [5] is described as follows: NIH3T3 cell viability loss – ATP luminescence, mouse fibroblasts, counter-screen, dose response (AID 2010).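 Also: cells exposed to compound for about 90 hours before reading.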 Format: functional, cell-based.
Assay [6] deals with T3, Histone-lysine N-methyltransferase NSD2 (Homo sapiens, UniProt O96028).
T3 sequence (O96028 whole entry): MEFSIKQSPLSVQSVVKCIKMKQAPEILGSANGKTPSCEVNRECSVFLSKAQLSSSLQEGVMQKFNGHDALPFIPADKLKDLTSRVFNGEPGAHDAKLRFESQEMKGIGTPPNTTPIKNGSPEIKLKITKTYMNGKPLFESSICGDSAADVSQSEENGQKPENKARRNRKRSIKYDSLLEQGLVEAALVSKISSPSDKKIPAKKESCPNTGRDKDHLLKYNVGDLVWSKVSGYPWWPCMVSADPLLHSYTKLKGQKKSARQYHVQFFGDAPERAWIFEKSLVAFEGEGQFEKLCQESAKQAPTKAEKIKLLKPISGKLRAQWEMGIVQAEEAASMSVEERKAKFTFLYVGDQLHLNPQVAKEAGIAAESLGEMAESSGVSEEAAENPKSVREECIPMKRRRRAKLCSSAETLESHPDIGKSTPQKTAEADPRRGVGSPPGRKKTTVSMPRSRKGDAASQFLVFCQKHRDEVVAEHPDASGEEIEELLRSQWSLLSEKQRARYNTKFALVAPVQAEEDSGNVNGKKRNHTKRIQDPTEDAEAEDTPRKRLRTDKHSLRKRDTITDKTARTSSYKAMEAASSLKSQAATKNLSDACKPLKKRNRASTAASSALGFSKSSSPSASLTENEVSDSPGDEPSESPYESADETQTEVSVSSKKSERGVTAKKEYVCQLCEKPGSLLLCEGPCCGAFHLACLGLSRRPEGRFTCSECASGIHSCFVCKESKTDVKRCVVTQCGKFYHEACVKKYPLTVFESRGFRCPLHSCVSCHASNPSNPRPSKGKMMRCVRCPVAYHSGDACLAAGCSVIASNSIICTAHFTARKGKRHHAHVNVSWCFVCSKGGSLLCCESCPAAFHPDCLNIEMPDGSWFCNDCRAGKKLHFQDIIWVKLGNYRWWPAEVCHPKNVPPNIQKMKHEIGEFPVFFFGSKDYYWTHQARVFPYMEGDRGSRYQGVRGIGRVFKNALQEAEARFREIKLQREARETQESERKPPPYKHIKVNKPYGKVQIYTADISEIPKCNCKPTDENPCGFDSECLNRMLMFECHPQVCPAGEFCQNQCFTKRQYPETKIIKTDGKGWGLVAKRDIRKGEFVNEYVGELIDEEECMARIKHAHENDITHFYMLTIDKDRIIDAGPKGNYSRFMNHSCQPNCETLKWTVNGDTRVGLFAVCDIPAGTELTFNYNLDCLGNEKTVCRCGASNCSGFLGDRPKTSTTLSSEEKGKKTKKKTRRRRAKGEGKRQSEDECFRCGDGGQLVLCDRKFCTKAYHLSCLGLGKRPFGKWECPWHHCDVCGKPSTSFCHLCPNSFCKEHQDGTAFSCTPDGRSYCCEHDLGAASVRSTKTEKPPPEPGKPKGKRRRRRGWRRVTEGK
It is filed as biochemical.

Assay [7] has as its target Cytochrome P450 2C9 (Homo sapiens, UniProt P11712).
Assay [8] deals with Induced myeloid leukemia cell differentiation protein Mcl-1 (Homo sapiens, UniProt Q07820). It is filed as functional.
Assay [9] deals with Voltage-dependent T-type calcium channel subunit alpha-1H (Homo sapiens, UniProt O95180). It is filed as functional.
The target of assay [10] is T4, Rac GTPase-activating protein 1 (Homo sapiens, UniProt Q9H0H5).
T4 sequence (Q9H0H5 whole entry): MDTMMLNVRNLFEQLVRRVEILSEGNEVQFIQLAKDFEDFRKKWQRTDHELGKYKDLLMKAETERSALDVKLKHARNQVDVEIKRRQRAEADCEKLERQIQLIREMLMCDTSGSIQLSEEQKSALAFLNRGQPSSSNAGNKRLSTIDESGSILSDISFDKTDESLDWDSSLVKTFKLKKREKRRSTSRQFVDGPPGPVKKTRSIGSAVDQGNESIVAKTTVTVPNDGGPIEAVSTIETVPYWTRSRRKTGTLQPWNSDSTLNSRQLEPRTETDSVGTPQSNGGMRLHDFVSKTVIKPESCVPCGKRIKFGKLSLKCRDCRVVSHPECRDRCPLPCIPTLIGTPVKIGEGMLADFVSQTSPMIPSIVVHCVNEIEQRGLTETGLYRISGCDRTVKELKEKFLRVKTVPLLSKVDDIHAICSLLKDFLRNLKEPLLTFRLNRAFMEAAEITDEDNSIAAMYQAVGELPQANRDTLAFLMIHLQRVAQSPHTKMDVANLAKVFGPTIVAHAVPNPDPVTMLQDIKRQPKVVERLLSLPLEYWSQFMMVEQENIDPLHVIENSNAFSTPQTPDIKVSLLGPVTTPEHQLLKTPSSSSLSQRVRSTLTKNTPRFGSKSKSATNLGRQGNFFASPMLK
The experiment in a line: blockers of MgcRacGAP-driven Rac1 GTP hydrolysis – biochemical, ADP Hunter fluorescence, primary and confirmatory, confirmation (AID 624330). Format: functional.

The target of assay [11] is T5, Leucine aminopeptidase (Plasmodium falciparum 3D7, UniProt Q8IL11).
T5 sequence (Q8IL11 whole entry): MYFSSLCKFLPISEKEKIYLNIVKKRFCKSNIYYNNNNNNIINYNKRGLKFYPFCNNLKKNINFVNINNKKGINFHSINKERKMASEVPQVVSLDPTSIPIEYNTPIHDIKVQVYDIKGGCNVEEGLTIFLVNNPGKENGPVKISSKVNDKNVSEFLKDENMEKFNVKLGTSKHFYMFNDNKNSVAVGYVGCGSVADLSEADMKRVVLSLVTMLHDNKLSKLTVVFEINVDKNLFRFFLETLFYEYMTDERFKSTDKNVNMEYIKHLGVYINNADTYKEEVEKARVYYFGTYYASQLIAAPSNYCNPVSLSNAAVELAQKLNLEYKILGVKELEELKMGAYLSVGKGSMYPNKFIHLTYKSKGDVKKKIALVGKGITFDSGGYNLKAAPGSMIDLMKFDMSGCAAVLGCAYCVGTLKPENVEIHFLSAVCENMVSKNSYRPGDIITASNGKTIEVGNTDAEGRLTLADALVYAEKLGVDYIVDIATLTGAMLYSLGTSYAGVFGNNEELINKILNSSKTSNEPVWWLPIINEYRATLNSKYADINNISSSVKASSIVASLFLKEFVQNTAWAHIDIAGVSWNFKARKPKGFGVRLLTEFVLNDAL
The experiment in a line: P. falciparum M17LAP inhibitors, primary screen, biochemical, fluorogenic H-Leu-NHMec substrate, 1536-well (AID 1619). It is filed as functional.

Assay [12] in a line: growth inhibition of yeast DHODH-expressing 3D7 parasites – SYBR Green, dry powder samples, dose response (AID 1159570).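 Also: parasite growth measured after 72 hours of compound exposure.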 It is filed as functional, cell-based.
A short description of assay [13]: P. falciparum Dd2 growth inhibitors, dose response, SYBR Green, cherry-picked samples (AID 1159567). It is filed as functional, cell-based.
The nature of assay [14]: Dd2 malaria parasite growth inhibition potency – SYBR Green, dry powder samples, dose response (AID 1159566).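 Also: potency for growth inhibition with lower SYBR green DNA signal.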 Format: functional, cell-based.
Assay [15] is described as follows: growth inhibition of PfATP4-mutant resistant parasites – NITD609-resistant line, SYBR Green, dry powder, dose response (AID 1159571).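 Also: parasites synchronized at ring stage by sorbitol before testing.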 It is filed as functional, cell-based.

Structures are written as SMILES. The source made the active and inactive calls.

Induced myeloid leukemia cell differentiation protein Mcl-1, sequence (Q07820 whole entry): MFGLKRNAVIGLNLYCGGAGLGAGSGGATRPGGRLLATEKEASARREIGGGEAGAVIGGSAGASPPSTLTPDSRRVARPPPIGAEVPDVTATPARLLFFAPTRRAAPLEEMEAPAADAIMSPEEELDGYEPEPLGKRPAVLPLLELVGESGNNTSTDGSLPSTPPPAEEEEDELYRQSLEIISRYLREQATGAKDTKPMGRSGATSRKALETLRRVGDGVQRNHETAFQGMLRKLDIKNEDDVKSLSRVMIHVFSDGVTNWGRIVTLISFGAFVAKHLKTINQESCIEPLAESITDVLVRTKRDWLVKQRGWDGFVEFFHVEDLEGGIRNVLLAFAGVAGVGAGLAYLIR
Cytochrome P450 2C9, sequence (P11712 whole entry): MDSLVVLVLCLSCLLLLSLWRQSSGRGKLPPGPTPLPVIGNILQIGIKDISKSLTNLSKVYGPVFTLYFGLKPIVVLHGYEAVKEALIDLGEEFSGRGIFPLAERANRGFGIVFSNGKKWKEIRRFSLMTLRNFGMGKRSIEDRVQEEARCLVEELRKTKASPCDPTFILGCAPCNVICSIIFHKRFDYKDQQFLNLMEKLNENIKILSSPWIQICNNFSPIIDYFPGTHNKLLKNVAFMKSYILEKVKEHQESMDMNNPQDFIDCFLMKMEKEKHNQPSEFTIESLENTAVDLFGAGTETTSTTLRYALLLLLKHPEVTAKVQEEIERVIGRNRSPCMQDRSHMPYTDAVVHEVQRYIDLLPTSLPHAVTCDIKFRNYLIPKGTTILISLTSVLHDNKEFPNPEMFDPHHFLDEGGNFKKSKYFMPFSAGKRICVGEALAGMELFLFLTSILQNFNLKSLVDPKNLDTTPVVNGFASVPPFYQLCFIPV
Voltage-dependent T-type calcium channel subunit alpha-1H, sequence (O95180 whole entry): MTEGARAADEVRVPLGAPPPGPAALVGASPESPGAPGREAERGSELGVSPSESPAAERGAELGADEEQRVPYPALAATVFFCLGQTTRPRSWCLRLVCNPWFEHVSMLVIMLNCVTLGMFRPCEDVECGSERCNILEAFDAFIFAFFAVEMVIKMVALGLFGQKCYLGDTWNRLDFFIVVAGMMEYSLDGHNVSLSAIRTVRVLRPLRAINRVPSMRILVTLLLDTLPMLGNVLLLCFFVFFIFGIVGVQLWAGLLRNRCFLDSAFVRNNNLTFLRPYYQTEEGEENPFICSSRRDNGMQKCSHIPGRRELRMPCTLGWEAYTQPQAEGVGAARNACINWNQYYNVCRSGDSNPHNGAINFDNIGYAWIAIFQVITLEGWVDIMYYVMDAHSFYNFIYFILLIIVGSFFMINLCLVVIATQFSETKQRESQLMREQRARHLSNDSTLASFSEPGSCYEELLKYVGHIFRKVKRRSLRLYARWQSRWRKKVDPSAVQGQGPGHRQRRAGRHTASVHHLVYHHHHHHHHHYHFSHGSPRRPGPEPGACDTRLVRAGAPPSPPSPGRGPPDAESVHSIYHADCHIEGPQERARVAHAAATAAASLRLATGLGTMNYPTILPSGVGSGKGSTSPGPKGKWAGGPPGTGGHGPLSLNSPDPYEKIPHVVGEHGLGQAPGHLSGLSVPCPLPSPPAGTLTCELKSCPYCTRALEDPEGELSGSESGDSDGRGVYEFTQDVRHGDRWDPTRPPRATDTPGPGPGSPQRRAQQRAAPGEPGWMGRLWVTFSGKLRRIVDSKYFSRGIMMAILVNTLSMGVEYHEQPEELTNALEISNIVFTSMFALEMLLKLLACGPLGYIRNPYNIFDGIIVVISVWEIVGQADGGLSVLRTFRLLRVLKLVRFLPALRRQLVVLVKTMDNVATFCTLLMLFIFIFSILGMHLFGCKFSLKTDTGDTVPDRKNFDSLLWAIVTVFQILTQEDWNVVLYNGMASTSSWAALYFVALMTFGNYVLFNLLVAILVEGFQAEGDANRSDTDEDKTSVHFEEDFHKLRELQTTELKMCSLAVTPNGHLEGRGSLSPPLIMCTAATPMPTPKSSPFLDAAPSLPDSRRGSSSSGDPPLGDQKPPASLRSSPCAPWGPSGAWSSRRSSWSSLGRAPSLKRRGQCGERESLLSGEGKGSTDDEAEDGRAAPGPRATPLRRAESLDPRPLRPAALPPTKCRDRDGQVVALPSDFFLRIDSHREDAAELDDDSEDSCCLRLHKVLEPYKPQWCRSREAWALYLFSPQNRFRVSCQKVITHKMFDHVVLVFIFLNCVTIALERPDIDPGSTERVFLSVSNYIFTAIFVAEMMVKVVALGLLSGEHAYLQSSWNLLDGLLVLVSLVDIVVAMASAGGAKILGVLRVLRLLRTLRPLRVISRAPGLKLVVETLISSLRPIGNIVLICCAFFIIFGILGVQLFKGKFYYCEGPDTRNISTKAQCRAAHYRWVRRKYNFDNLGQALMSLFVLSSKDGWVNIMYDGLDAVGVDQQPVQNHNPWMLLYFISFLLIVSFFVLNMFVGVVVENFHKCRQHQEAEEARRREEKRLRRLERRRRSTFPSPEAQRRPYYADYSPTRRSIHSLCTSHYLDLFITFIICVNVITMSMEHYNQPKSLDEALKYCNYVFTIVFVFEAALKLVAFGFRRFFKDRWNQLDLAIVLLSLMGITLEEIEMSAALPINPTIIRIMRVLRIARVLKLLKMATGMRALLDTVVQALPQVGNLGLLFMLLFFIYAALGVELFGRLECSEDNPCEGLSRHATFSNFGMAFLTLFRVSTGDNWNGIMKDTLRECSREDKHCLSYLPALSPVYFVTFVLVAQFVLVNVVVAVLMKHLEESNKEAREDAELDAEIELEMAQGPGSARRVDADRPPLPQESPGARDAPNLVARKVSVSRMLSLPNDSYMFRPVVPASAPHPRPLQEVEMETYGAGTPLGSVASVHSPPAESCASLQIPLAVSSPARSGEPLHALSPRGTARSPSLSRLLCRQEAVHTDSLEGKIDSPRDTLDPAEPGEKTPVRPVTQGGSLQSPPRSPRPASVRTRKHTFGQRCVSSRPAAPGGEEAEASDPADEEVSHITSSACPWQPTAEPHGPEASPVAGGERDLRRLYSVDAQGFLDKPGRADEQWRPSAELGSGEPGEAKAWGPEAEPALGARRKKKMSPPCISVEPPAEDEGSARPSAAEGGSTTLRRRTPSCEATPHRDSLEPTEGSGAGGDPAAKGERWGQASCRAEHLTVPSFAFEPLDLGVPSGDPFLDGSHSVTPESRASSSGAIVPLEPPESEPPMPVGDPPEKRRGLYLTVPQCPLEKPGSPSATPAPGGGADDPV

Regarding `CCOC(=O)CSc1nc(C(C)C)nc2sc(C)c(C)c12`, the IC50 in assay [1] is 2.34 µM (not active).

`Cc1ccc(SCC(=O)c2c(C)nc3cc(C)ccn23)cc1`: the IC50 in [1] is 6.79 µM (not active). Take `O=C(CN1CCC(NC(=O)c2cccc(F)c2)CC1)NCc1ccccc1F`: the IC50 in assay [2] was 23.2 µM (active); in assay [3], > 100 µM (active). For the compound `O=S(=O)(Nc1ccc2c(c1)nc1n2CCN(Cc2ccccc2)C1)c1ccc(Cl)cc1`, in assay [3], the IC50 was > 100 µM (active).

As to `COc1cccc(CN2CCNC(=O)C2CC(=O)NCCn2nc(C)cc2C)c1OC` (centres undefined), the IC50 in assay [3] is > 100 µM (active). Regarding `CNCCCOc1cccc(Oc2ccccc2)c1`, the EC50 in assay [4] was 1.29 µM (active); in assay [5], > 30 µM (not active). Also, in [6], the AC50 is > 20 µM (inactive). With `Cc1ccc[n+](CC(=O)c2cc3ccccc3oc2=O)c1`, the IC50 in [3] was > 100 µM (active). For the same compound, the AC50 in assay [7] was 1.78 µM (inconclusive). For `O=[N+]([O-])C(=c1ccc2c(c1)N1C3=C(CCCC3)CC3CCCCC31N=2)[N+](=O)[O-]` (centres undefined), the IC50 in assay [8] was 1.95 µM (active).

Turning to `Cc1ccc2oc(=O)n(Cc3ccccc3OC(C)C)c2c1`, the IC50 in assay [1] was > 50 µM (not active). The EC50 in [9] was 8.57 µM (active). For the compound `N=C1/C(=C\c2ccc(O)c(O)c2)C(=O)N=C2SC(CC(=O)N3CCOCC3)=NN12`, the IC50 in [10] is 63.6 µM (active). Besides, in assay [6], the AC50 is 1.79 µM (active).

Regarding `O=C(Nc1nc(=O)[nH]s1)c1ccccc1`, the IC50 in assay [11] is 18.1 µM (active); in [1], > 50 µM (not active). `CC1SC(N/N=C/c2ccco2)=NC1=O` (centres undefined): the half-inhibitory concentration (IC50) in assay [3] is > 100 µM (active). On to `O=C(N/N=C/c1cc(Br)cs1)c1c[nH]c2ccccc12`, for which, in assay [1], the IC50 is 4.39 µM (not active). For `Cc1ccc(S(=O)(=O)N(C)C[C@@H]2OCc3ccccc3-c3c(n(C)c4ccccc34)C(=O)N([C@@H](C)CO)C[C@@H]2C)cc1`, the AC50 in assay [12] is 427 nM (active); in assay [13], 611 nM (active); in assay [14], 346 nM (active); in assay [15], 291 nM (active).
